According to ChEMBL document CHEMBL5137058, “Therapeutic Strategies to Target the Androgen Receptor” (J Med Chem, 2022):

Legend:
PC-3 = assay: Antiproliferative activity against androgen-independent human PC-3 cells; type: functional, cell-based
LNCaP [1] = assay: Antiproliferative activity against human LNCaP cells expressing Androgen receptor […] mutant; type: functional, cell-based
CWR22R = assay: Antiproliferative activity against human 22Rv1 cells expressing Androgen receptor H874Y mutant; type: functional, cell-based
SC-3 = assay: Antiproliferative activity against mouse SC-3 cells; type: functional, cell-based
[2] = Antitumor activity against bicalutamide-resistant human LNCaP-cxD2 cells xenografted in mouse at 40 mg/kg, po administered for 28 days; type: functional; conditions: time 28 day
Androgen receptor [3] = target: T1, Androgen receptor (Homo sapiens, UniProt P10275); assay: Binding affinity to Androgen receptor (unknown origin); conditions: read-out: pIC50 (converted)
T1 sequence (P10275 whole entry): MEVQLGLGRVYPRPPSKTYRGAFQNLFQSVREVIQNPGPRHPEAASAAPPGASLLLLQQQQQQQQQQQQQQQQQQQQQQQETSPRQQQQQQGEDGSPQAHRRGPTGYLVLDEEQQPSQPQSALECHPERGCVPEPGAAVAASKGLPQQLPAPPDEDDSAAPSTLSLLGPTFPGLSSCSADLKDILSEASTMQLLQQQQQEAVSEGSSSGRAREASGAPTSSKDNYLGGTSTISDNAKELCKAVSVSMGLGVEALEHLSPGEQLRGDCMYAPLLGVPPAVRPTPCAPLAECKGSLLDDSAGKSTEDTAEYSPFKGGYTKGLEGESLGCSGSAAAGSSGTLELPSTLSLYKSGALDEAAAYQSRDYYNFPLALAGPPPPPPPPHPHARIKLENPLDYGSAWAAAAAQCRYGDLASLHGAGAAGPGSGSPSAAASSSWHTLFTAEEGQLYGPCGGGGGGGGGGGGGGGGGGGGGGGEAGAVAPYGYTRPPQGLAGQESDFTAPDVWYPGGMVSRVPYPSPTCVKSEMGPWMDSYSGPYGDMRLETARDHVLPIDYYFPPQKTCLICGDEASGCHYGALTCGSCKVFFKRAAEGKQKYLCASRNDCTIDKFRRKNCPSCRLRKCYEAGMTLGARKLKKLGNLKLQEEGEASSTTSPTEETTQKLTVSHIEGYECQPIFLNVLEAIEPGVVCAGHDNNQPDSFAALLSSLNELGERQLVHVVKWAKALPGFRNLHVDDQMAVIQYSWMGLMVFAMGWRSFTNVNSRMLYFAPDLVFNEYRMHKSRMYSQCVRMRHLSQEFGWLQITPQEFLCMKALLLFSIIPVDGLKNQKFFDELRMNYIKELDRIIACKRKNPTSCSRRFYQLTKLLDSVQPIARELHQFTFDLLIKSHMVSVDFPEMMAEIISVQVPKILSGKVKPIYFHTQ

Androgen receptor [4] = target: T1, Androgen receptor; assay: Antagonist activity at Androgen receptor (unknown origin) assessed as downregulation of AR
Rattus norvegicus [5] = assay: Anti-androgenic activity in rat assessed as decrease in seminal vesicle weight at 2.58 microM/Kg, po administered twice daily for 7 days; type: functional; parameters: scale not given: the % may be the effect or the level left; conditions: time 7 day, at 2.58 µmol/kg
[6] = Oral bioavailability in rat; type: ADME, organism-based; conditions: in vivo
LNCaP [7] = assay: Antitumor activity against human LNCaP cells xenografted in mouse assessed as decrease in PSA level at 100 mg/kg, sc; type: functional; parameters: scale not given: the % may be the effect or the level left
VCaP = assay: Antiproliferative activity against human VCaP cells; type: functional, cell-based
[8] = Oral bioavailability in mouse; type: ADME, organism-based; conditions: in vivo
LNCaP [9] = assay: Antitumor activity against human LNCaP cells expressing Androgen receptor F877L mutant xenografted in mouse assessed as tumor growth inhibition at 30 mg/kg, po administered daily; type: functional; conditions: read-out: TGI
LNCaP C4-2 = assay: Antiproliferative activity against AR-independent human LNCaP C4-2 cells after 5 days by MTS assay; type: functional, cell-based; conditions: LNCaP C4-2, 120 h
[10] = Antiproliferative activity against AR-independent human CWR22Rv cells after 5 days by MTS assay; type: functional, cell-based; conditions: 120 h
[11] = Antitumor activity against human CWR22Rv cells xenografted in mouse at 10 mg/kg, ip administered for 21 days; type: functional; conditions: time 21 day
LNCaP [12] = assay: Antiproliferative activity against human LNCaP cells after 5 days by MTS assay; type: functional; conditions: time 5 day
[13] = target: T2, Androgen receptor (Homo sapiens) (UniProt P10275); assay: Agonist activity at Androgen receptor (unknown origin) in presence of DHT
T2 sequence (whole entry): T1 sequence (P10275 whole entry)

HEK-293T = assay: Antiproliferative activity against NTD-over expressed human HEK293T cells after 5 days by MTS assay; type: functional, cell-based; conditions: 120 h
[14] = target: T2, Androgen receptor (Homo sapiens); assay: Antagonist activity at Androgen receptor (unknown origin) at 10 uM relative to control; parameters: scale not given: the % may be the effect or the level left; conditions: filed as antagonist
Androgen receptor [15] = target: T1, Androgen receptor; assay: Activation of human Androgen receptor N/C (N-terminal/C-terminal) interaction
Androgen receptor [16] = target: T1, Androgen receptor; assay: Agonist activity at human Androgen receptor expressed in African green monkey CV-1 cells measured by ARE-luciferase assay; type: cell-based
Rattus norvegicus [17] = assay: Antagonist activity in mature male Sprague-Dawley rat assessed as decrease in seminal vesicle and prostate weight at 1 mg/kg, po administered once a day for 14 days; type: functional; parameters: scale not given: the % may be the effect or the level left; conditions: time 14 day
Androgen receptor [18] = target: T1, Androgen receptor; assay: Antagonist activity at Androgen receptor in human LNCaP cells measured by SEAP reporter gene assay; type: cell-based
Androgen receptor [19] = target: T1, Androgen receptor; assay: Displacement of [3H]DHT from Androgen receptor expressed in human MDA-MB-453 cells; type: cell-based
Androgen receptor [20] = target: T1, Androgen receptor; assay: Antagonist activity at Androgen receptor in human MDA-MB-453 cells measured by SEAP reporter gene assay; type: cell-based
Rattus norvegicus [21] = assay: Antagonist activity in mature male Sprague-Dawley rat assessed as decrease in seminal vesicle and prostate weight at 10 mg/kg, po administered once a day for 14 days; type: functional; parameters: scale not given: the % may be the effect or the level left; conditions: time 14 day
LNCaP [22] = assay: Antiproliferative activity against human LNCaP cells; type: functional, cell-based
MR49F = assay: Antiproliferative activity against human MR49F cells; type: functional, cell-based
[23] = In vivo agonist activity at Androgen receptor in male rat assessed as increase in levator ani muscle weight at 0.1 mg/kg, po administered for 14 days; type: functional; conditions: time 14 day
[24] = In vivo agonist activity at Androgen receptor in male rat assessed as increase in prostate weight at 0.1 mg/kg, po administered for 14 days; type: functional; conditions: time 14 day
Androgen receptor [25] = target: T1, Androgen receptor; type: cell-based, LNCaP C4-2
Description: Antagonist activity at Androgen receptor in human LNCaP C4-2 cells transfected with PSA6.1-luc and pRL-TK measured by luciferase gene reporter assay

T47D = assay: Antiproliferative activity against human T47D cells; type: functional, cell-based
[26] = Antiproliferative activity against androgen-sensitive mouse SEM-107 cells; type: functional, cell-based
[27] = target: Protein cereblon/Androgen receptor (Homo sapiens, UniProt P10275+Q96SW2); assay: Protac activity at CRBN/Androgen receptor in human LNCaP cells assessed as Androgen receptor degradation; type: cell-based
Protein cereblon/Androgen receptor, sequence (Q96SW2 whole entry, one chain of several): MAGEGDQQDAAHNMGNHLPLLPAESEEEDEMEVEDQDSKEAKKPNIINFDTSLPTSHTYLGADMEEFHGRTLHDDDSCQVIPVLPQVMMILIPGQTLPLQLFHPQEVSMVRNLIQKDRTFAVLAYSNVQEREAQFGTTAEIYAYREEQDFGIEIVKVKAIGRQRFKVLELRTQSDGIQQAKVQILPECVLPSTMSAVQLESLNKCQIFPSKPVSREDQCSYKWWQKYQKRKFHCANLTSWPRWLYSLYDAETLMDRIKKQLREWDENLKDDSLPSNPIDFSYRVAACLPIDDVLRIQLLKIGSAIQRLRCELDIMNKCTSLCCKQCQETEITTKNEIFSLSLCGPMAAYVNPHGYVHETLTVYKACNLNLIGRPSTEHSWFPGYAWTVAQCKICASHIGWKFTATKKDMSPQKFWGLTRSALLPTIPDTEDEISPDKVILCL

Androgen receptor [28] = target: T1, Androgen receptor; assay: Antagonist activity at wild-type Androgen receptor (unknown origin) expressed in African green monkey COS-7 cells measured as gene transcription level; type: cell-based
Androgen receptor [29] = target: T1, Androgen receptor; assay: Binding affinity to wild-type Androgen receptor (unknown origin)
[30] = Antitumor activity against bicalutamide-resistant human LNCaP-cxD2 cells xenografted in mouse at 50 mg/kg, po administered for 28 days; type: functional; conditions: time 28 day
Androgen receptor [31] = target: T1, Androgen receptor; assay: Antagonist activity at Androgen receptor (unknown origin) assessed as inhibition of activation function 1 (AF-1) of AR N-terminal transactivation domain (NTD)
[32] = In vivo agonist activity at Androgen receptor in castrated rat assessed as increase in prostate weight at 2 mg administered orally per day for 5 days; type: functional; conditions: route po, time 5 day
[33] = In vivo agonist activity at Androgen receptor in castrated rat assessed as increase in levator ani muscle weight at 2 mg administered orally per day for 5 days; type: functional; conditions: route po, time 5 day

Which results are given for `COc1cccc(C(=O)Nc2ccc(Oc3ccc(O)cc3)c(C)c2)c1`?
IC50 (PC-3): > 10000 nM; IC50 (LNCaP [1]): 43 nM; IC50 (CWR22R): 220 nM; IC50 (SC-3): 750 nM

For `Cc1nn(-c2ccc(C#N)c(Cl)c2)c(C)c1Cc1ccc(C(=O)NCC(C)(C)O)cc1`, which T/C [2] is on record?
The T/C was 23%.

What does the source list for `N#Cc1ccc(CN2CCN(c3ccc4nnc(C(F)(F)F)n4n3)CC2)cc1`?
IC50 (Androgen receptor [3]): > 79400 nM; IC50 (Androgen receptor [4]): > 1580 nM; Activity (Rattus norvegicus [5]): 80%; bioavailability [6]: 100%

For `CC1(C)[C@H](NC(=O)c2cnn(CCO)c2)C(C)(C)[C@H]1Oc1ccc(C#N)c(Cl)c1`, which Activity (LNCaP [7]) is on record?
The Activity was over 90%.

Which IC50 (VCaP) does the source give for `N#Cc1ncc(N2C(=O)C3(CCC3)N(c3ccc(OC4CCNCC4)nc3)C2=S)cc1C(F)(F)F` [TRC-253] here?
The IC50 was 290 nM.

What about the bioavailability [8] of the same molecule?
Its bioavailability is 45%.

And the inhibition in vivo at 30 mg/kg (LNCaP [9])?
Its inhibition in vivo at 30 mg/kg is 87%.

With `CCOc1ccc2c(c1OC(C)C)CCN(c1ccc(C(=O)Nc3cccc(C)n3)cn1)C2` as the molecule, how does the IC50 (LNCaP C4-2) read?
Its IC50 is 1000 nM.

What about the IC50 [10] of the same molecule?
The IC50 was 1000 nM.

And the T/C [11]?
Its T/C is 65%.

What about the Activity (LNCaP [12]) of the same molecule?
The Activity was over 90%.

And the Activity [13]?
Its Activity is under 5%.

And the IC50 (HEK-293T)?
The IC50 was 780 nM.

And the Activity [14]?
Its Activity is over 95%.

Which results are given for `N#Cc1ccc(-c2ccc(O)cc2F)[nH]1`?
EC50 (Androgen receptor [15]): 1210 nM; EC50 (Androgen receptor [16]): 0.34 nM

For `CCS(=O)(=O)N[C@@H]1C[C@@]2(C)O[C@]1(C)[C@@H]1C(=O)N(c3ccc(C#N)c(C(F)(F)F)c3)C(=O)[C@@H]12`, which Activity (Rattus norvegicus [17]) is on record?
Its Activity is 42%.

And the IC50 (Androgen receptor [18])?
Its IC50 is 153 nM.

What about the Ki (Androgen receptor [19]) of the same molecule?
Its Ki is 1.7 nM.

And the IC50 (Androgen receptor [20])?
Its IC50 is 16 nM.

What about the Activity (Rattus norvegicus [21]) of the same molecule?
The Activity was 74%.

For `Brc1ncn(-c2csc(N3CCOCC3)n2)c1Br`, which IC50 (LNCaP [22]) is on record?
Its IC50 is under 500 nM.

And the IC50 (MR49F)?
The IC50 was under 500 nM.

For `Cc1c(/N=C2\O[C@@H](C(F)(F)F)[C@@H]3[C@@H](O)CCN23)ccc(C#N)c1Cl`, which Activity [23] is on record?
Its Activity is 100%.

What about the Activity [24] of the same molecule?
Its Activity is 100%.

With `Cc1ccc(Cl)cc1N1CCN(C(=O)[C@@H]2C[C@@H]2c2ccc(F)cc2)CC1` as the molecule, how does the EC50 (Androgen receptor [25]) read?
Its EC50 is 1700 nM.

With `CC(C)(O)C(=O)Nc1ccc([N+](=O)[O-])c(C(F)(F)F)c1` [HYDROXYFLUTAMIDE] as the molecule, how does the IC50 (T47D) read?
The IC50 was 45 nM.

What about the IC50 [26] of the same molecule?
The IC50 was 84 nM.

For `C[C@](O)(COc1ccc(OCCOCCOc2cccc3c2C(=O)N(C2CCC(=O)NC2=O)C3=O)cc1)C(=O)Nc1ccc(I)c(C#N)c1` (stereo partly specified), which DC50 [27] is on record?
The DC50 was 5200 nM.

Which results are given for `Cc1nn(-c2ccc(C#N)c(Cl)c2)c(C)c1Oc1ccc(C(=O)NC(C)(C)C)cn1`?
IC50 (Androgen receptor [28]): 1000 nM; IC50 (Androgen receptor [29]): 430 nM; T/C [30]: 17%

For `CC(=O)OC[C@H](COc1ccc(C(C)(C)c2ccc(OC[C@@H](CCl)OC(C)=O)cc2)cc1)OC(C)=O` [RALANITEN ACETATE], which IC50 (Androgen receptor [31]) is on record?
The IC50 was 9600 nM.

With `C[C@@]12CC(C(F)(F)F)=NN1C(=O)N(c1ccc(C#N)c(C(F)(F)F)c1)C2=O` as the molecule, how does the Activity [32] read?
Its Activity is 11%.

And the Activity [33]?
Its Activity is 75%.
